Measurements as given in PubChem BioAssay AID1963852 (Molecular Pharmacology Branch, DTP, NCI, 2024).

System: 282377-053-R-J1-PDC complex spheroid viability
Test: Anticancer human tumor 282377-053-R-J1-PDC patient-derived colon adenocarcinoma cell line growth inhibition [POLQ]
Settings: for IC50: curve of first compound; for viability, T/C: stronger effect = lower value
Method in brief: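 PDC + HUVEC + MSC complex spheroids; POLQ inhibitors ± partner drugs; top conc. at/near clinical Cmax, else 10 microM (SN-38 1 microM), half-log dilutions; 37 degrees C, 5% CO2.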

[1] = second compound 0.0316 µM, first compound 0.00316 µM
[2] = second compound 0.0316 µM, first compound 0.01 µM
[3] = second compound 0.0316 µM, first compound 0.0316 µM
[4] = second compound 0.0316 µM, first compound 0.1 µM
[5] = second compound 0.0316 µM, first compound 0.316 µM
[6] = second compound 0.0316 µM, first compound 1 µM
[7] = second compound 0.1 µM, first compound 0.00316 µM
[8] = second compound 0.1 µM, first compound 0.01 µM
[9] = second compound 0.1 µM, first compound 0.0316 µM
[10] = second compound 0.1 µM, first compound 0.1 µM
[11] = second compound 0.1 µM, first compound 0.316 µM
[12] = second compound 0.1 µM, first compound 1 µM
[13] = second compound 0.316 µM, first compound 0.00316 µM
[14] = second compound 0.316 µM, first compound 0.01 µM
[15] = second compound 0.316 µM, first compound 0.0316 µM
[16] = second compound 0.316 µM, first compound 0.1 µM
[17] = second compound 0.316 µM, first compound 0.316 µM
[18] = second compound 0.316 µM, first compound 1 µM
[19] = second compound 1 µM, first compound 0.00316 µM
[20] = second compound 1 µM, first compound 0.01 µM
[21] = second compound 1 µM, first compound 0.0316 µM
[22] = second compound 1 µM, first compound 0.1 µM
[23] = second compound 1 µM, first compound 0.316 µM
[24] = second compound 1 µM, first compound 1 µM
[25] = second compound 3.16 µM, first compound 0.00316 µM
[26] = second compound 3.16 µM, first compound 0.01 µM
[27] = second compound 3.16 µM, first compound 0.0316 µM
[28] = second compound 3.16 µM, first compound 0.1 µM
[29] = second compound 3.16 µM, first compound 0.316 µM
[30] = second compound 3.16 µM, first compound 1 µM
[31] = second compound 10 µM, first compound 0.00316 µM
[32] = second compound 10 µM, first compound 0.01 µM
[33] = second compound 10 µM, first compound 0.0316 µM
[34] = second compound 10 µM, first compound 0.1 µM
[35] = second compound 10 µM, first compound 0.316 µM
[36] = second compound 10 µM, first compound 1 µM
[37] = second compound 0.0316 µM, first compound 3.16 µM
[38] = second compound 0.0316 µM, first compound 10 µM
[39] = second compound 0.1 µM, first compound 3.16 µM
[40] = second compound 0.1 µM, first compound 10 µM
[41] = second compound 0.316 µM, first compound 3.16 µM
[42] = second compound 0.316 µM, first compound 10 µM
[43] = second compound 1 µM, first compound 3.16 µM
[44] = second compound 1 µM, first compound 10 µM
[45] = second compound 3.16 µM, first compound 3.16 µM
[46] = second compound 3.16 µM, first compound 10 µM
[47] = second compound 10 µM, first compound 3.16 µM
[48] = second compound 10 µM, first compound 10 µM
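Further: spheroids exposed to compounds for seven days.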
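Wherever viability, T/C is given: 100% = DMSO vehicle control viability.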

C=CCn1c(=O)c2cnc(Nc3ccc(N4CCN(C)CC4)cc3)nc2n1-c1cccc(C(C)(C)O)n1 + Cc1cccc(N(C)C(=O)C2C(O)CCN2c2nc(C)cc(C(F)(F)F)c2C#N)c1
IC50 (second compound 0.0316 µM): > 1 µM
IC50 (second compound 0.1 µM): > 1 µM
IC50 (second compound 0.316 µM): > 1 µM
IC50 (second compound 1 µM): > 1 µM
IC50 (second compound 3.16 µM): > 1 µM
IC50 (second compound 10 µM): > 1 µM
viability, T/C [1]: 106%
viability, T/C [2]: 107%
viability, T/C [3]: 107%
viability, T/C [4]: 96.9%
viability, T/C [5]: 93.6%
viability, T/C [6]: 76.6%
viability, T/C [7]: 95.6%
viability, T/C [8]: 110%
viability, T/C [9]: 94.3%
viability, T/C [10]: 102%
viability, T/C [11]: 92.2%
viability, T/C [12]: 68.4%
viability, T/C [13]: 107%
viability, T/C [14]: 103%
viability, T/C [15]: 96.8%
viability, T/C [16]: 91.1%
viability, T/C [17]: 90.6%
viability, T/C [18]: 71.8%
viability, T/C [19]: 109%
viability, T/C [20]: 97%
viability, T/C [21]: 94.8%
viability, T/C [22]: 89.1%
viability, T/C [23]: 89.2%
viability, T/C [24]: 73%
viability, T/C [25]: 104%
viability, T/C [26]: 102%
viability, T/C [27]: 102%
viability, T/C [28]: 93.2%
viability, T/C [29]: 98.3%
viability, T/C [30]: 70.2%
viability, T/C [31]: 99.9%
viability, T/C [32]: 103%
viability, T/C [33]: 93.7%
viability, T/C [34]: 98.9%
viability, T/C [35]: 94.3%
viability, T/C [36]: 85.4%

CC[C@@]1(O)C(=O)OCc2c1cc1n(c2=O)Cc2cc3c(CN(C)C)c(O)ccc3nc2-1 + Cc1cccc(N(C)C(=O)C2C(O)CCN2c2nc(C)cc(C(F)(F)F)c2C#N)c1
IC50 (second compound 0.0316 µM): > 0.1 µM
IC50 (second compound 0.1 µM): > 0.1 µM
IC50 (second compound 0.316 µM): > 0.1 µM
IC50 (second compound 1 µM): > 0.1 µM
IC50 (second compound 3.16 µM): > 0.1 µM
IC50 (second compound 10 µM): > 0.1 µM
viability, T/C (second compound 0.0316 µM, first compound 0.000316 µM): 97.1%
viability, T/C (second compound 0.0316 µM, first compound 0.001 µM): 107%
viability, T/C [1]: 118%
viability, T/C [2]: 111%
viability, T/C [3]: 94.4%
viability, T/C [4]: 76.1%
viability, T/C (second compound 0.1 µM, first compound 0.000316 µM): 98.3%
viability, T/C (second compound 0.1 µM, first compound 0.001 µM): 108%
viability, T/C [7]: 86.1%
viability, T/C [8]: 109%
viability, T/C [9]: 87.6%
viability, T/C [10]: 88%
viability, T/C (second compound 0.316 µM, first compound 0.000316 µM): 90.6%
viability, T/C (second compound 0.316 µM, first compound 0.001 µM): 97.8%
viability, T/C [13]: 101%
viability, T/C [14]: 105%
viability, T/C [15]: 107%
viability, T/C [16]: 77.2%
viability, T/C (second compound 1 µM, first compound 0.000316 µM): 93%
viability, T/C (second compound 1 µM, first compound 0.001 µM): 92.6%
viability, T/C [19]: 124%
viability, T/C [20]: 105%
viability, T/C [21]: 124%
viability, T/C [22]: 71.9%
viability, T/C (second compound 3.16 µM, first compound 0.000316 µM): 97.5%
viability, T/C (second compound 3.16 µM, first compound 0.001 µM): 102%
viability, T/C [25]: 98.5%
viability, T/C [26]: 94.6%
viability, T/C [27]: 101%
viability, T/C [28]: 71%
viability, T/C (second compound 10 µM, first compound 0.000316 µM): 87.5%
viability, T/C (second compound 10 µM, first compound 0.001 µM): 93.9%
viability, T/C [31]: 92.3%
viability, T/C [32]: 81.2%
viability, T/C [33]: 96.2%
viability, T/C [34]: 65.2%

CNCc1ccc(-c2[nH]c3cc(F)cc4c3c2CCNC4=O)cc1 + Cc1cccc(N(C)C(=O)C2C(O)CCN2c2nc(C)cc(C(F)(F)F)c2C#N)c1
IC50 (second compound 0.0316 µM): > 10 µM
IC50 (second compound 0.1 µM): > 10 µM
IC50 (second compound 0.316 µM): > 10 µM
IC50 (second compound 1 µM): > 10 µM
IC50 (second compound 3.16 µM): > 10 µM
IC50 (second compound 10 µM): > 10 µM
viability, T/C [3]: 122%
viability, T/C [4]: 89.9%
viability, T/C [5]: 135%
viability, T/C [6]: 113%
viability, T/C [37]: 122%
viability, T/C [38]: 144%
viability, T/C [9]: 122%
viability, T/C [10]: 94.3%
viability, T/C [11]: 98.2%
viability, T/C [12]: 93%
viability, T/C [39]: 134%
viability, T/C [40]: 140%
viability, T/C [15]: 99.1%
viability, T/C [16]: 105%
viability, T/C [17]: 87.4%
viability, T/C [18]: 98.1%
viability, T/C [41]: 113%
viability, T/C [42]: 124%
viability, T/C [21]: 117%
viability, T/C [22]: 98.7%
viability, T/C [23]: 105%
viability, T/C [24]: 104%
viability, T/C [43]: 138%
viability, T/C [44]: 129%
viability, T/C [27]: 85.9%
viability, T/C [28]: 114%
viability, T/C [29]: 80.2%
viability, T/C [30]: 85.1%
viability, T/C [45]: 117%
viability, T/C [46]: 150%
viability, T/C [33]: 104%
viability, T/C [34]: 98.4%
viability, T/C [35]: 104%
viability, T/C [36]: 103%
viability, T/C [47]: 103%
viability, T/C [48]: 138%

O=C(c1cc(Cc2n[nH]c(=O)c3ccccc23)ccc1F)N1CCN(C(=O)C2CC2)CC1 + Cc1cccc(N(C)C(=O)C2C(O)CCN2c2nc(C)cc(C(F)(F)F)c2C#N)c1
IC50 (second compound 0.0316 µM): > 10 µM
IC50 (second compound 0.1 µM): > 10 µM
IC50 (second compound 0.316 µM): > 10 µM
IC50 (second compound 1 µM): > 10 µM
IC50 (second compound 3.16 µM): > 10 µM
IC50 (second compound 10 µM): > 10 µM
viability, T/C [3]: 104%
viability, T/C [4]: 107%
viability, T/C [5]: 109%
viability, T/C [6]: 107%
viability, T/C [37]: 106%
viability, T/C [38]: 80.7%
viability, T/C [9]: 110%
viability, T/C [10]: 108%
viability, T/C [11]: 112%
viability, T/C [12]: 90.9%
viability, T/C [39]: 116%
viability, T/C [40]: 80.4%
viability, T/C [15]: 83.3%
viability, T/C [16]: 94%
viability, T/C [17]: 101%
viability, T/C [18]: 87.3%
viability, T/C [41]: 94%
viability, T/C [42]: 85.3%
viability, T/C [21]: 100%
viability, T/C [22]: 92.2%
viability, T/C [23]: 108%
viability, T/C [24]: 111%
viability, T/C [43]: 107%
viability, T/C [44]: 95.3%
viability, T/C [27]: 92.2%
viability, T/C [28]: 117%
viability, T/C [29]: 104%
viability, T/C [30]: 88.6%
viability, T/C [45]: 101%
viability, T/C [46]: 101%
viability, T/C [33]: 84.6%
viability, T/C [34]: 110%
viability, T/C [35]: 90.4%
viability, T/C [36]: 110%
viability, T/C [47]: 87%
viability, T/C [48]: 107%
